Laboratory results: ChEMBL document CHEMBL3877297, “Chemical exploration of 4-(4-fluorobenzyl)piperidine fragment for the development of new tyrosinase inhibitors” (Eur J Med Chem, 2017)
Active and inactive are the calls of the source. The calls are words filed in the database; no cut-off is given here.

What follows are molecules tested against T1, Mushroom tyrosinase (Agaricus bisporus, UniProt O42713+Q00024+C7FF04+C7FF05) (assay: Inhibition of mushroom tyrosinase assessed as reduction in formation of dopachrome using L-DOPA as substrate).

| Compound | IC50 [µM] |
| --- | --- |
| COc1cccc2c1c(C(=O)C(=O)Nc1cn[nH]n1)cn2Cc1ccc(F)cc1 | 372 |
| COc1cccc2c1c(C(=O)/C=C(\O)C(=O)O)cn2Cc1ccc(F)cc1 | 224 |

What follows are molecules tested against T1, Mushroom tyrosinase (assay: Inhibition of mushroom tyrosinase monophenolase activity using L-tyrosine as substrate measured after 30 mins).

| Compound | IC50 [µM] |
| --- | --- |
| COc1cc2[nH]cc(C(=O)CCN3CCC(Cc4ccc(F)cc4)CC3)c2cc1OC | 5.11 |
| O=C(CCN1CCC(Cc2ccc(F)cc2)CC1)c1c[nH]c2ccccc12 | 9.45 |
| CCN1CCC(Cc2ccc(F)cc2)CC1 | 32.17 |
| COc1ccc2c(C(=O)CCN3CCC(Cc4ccc(F)cc4)CC3)c[nH]c2c1 | 9.4 |
| COc1cc2[nH]cc(C(=O)CCN3CCC(Cc4ccccc4)CC3)c2cc1OC | 57.24 |
| O=C(CCN1CCC(Cc2ccc(F)cc2)CC1)n1cnc2ccccc21 | 113.34 |
| O=C(CCN1CCC(Cc2ccc(F)cc2)CC1)Nc1cc[nH]n1 | 5.87 |
| COc1ccc2[nH]cc(C(=O)CCN3CCC(Cc4ccccc4)CC3)c2c1 | 25.78 |
| Cc1cc(NC(=O)CCN2CCC(Cc3ccc(F)cc3)CC2)on1 | 28.55 |
| O=C(CCN1CCC(Cc2ccc(F)cc2)CC1)Nc1ccccc1 | 28.85 |
| COc1ccc2[nH]cc(C(=O)CCN3CCC(Cc4ccc(F)cc4)CC3)c2c1 | 7.86 |
| O=C(CCN1CCC(Cc2ccccc2)CC1)c1c[nH]c2ccccc12 | 175 |
| O=C(CCN1CCC(Cc2ccc(F)cc2)CC1)NCc1ccccc1 | 13.98 |
| COc1ccc2c(C(=O)CCN3CCC(Cc4ccccc4)CC3)c[nH]c2c1 | 67.25 |

The molecules below were run against T1, Mushroom tyrosinase (assay: Inhibition of mushroom tyrosinase diphenolase activity using L-DOPA as substrate measured after 5 mins).

| Compound | IC50 [µM] |
| --- | --- |
| COc1cc2[nH]cc(C(=O)CCN3CCC(Cc4ccc(F)cc4)CC3)c2cc1OC | 7.56 |
| O=C(CCN1CCC(Cc2ccc(F)cc2)CC1)c1c[nH]c2ccccc12 | 8.82 |
| CCN1CCC(Cc2ccc(F)cc2)CC1 | 116 |
| COc1ccc2c(C(=O)CCN3CCC(Cc4ccc(F)cc4)CC3)c[nH]c2c1 | 18.03 |
| COc1cc2[nH]cc(C(=O)CCN3CCC(Cc4ccccc4)CC3)c2cc1OC | 133 |
| O=C(CCN1CCC(Cc2ccc(F)cc2)CC1)n1cnc2ccccc21 | 159.24 |
| O=C(CCN1CCC(Cc2ccc(F)cc2)CC1)Nc1cc[nH]n1 | 39.58 |
| COc1ccc2[nH]cc(C(=O)CCN3CCC(Cc4ccccc4)CC3)c2c1 | 197.45 |
| Cc1cc(NC(=O)CCN2CCC(Cc3ccc(F)cc3)CC2)on1 | 110.95 |
| O=C(CCN1CCC(Cc2ccc(F)cc2)CC1)Nc1ccccc1 | 27.9 |
| COc1ccc2[nH]cc(C(=O)CCN3CCC(Cc4ccc(F)cc4)CC3)c2c1 | 14.15 |
| O=C(CCN1CCC(Cc2ccccc2)CC1)c1c[nH]c2ccccc12 | 252 |
| O=C(CCN1CCC(Cc2ccc(F)cc2)CC1)NCc1ccccc1 | 83 |
| COc1ccc2c(C(=O)CCN3CCC(Cc4ccccc4)CC3)c[nH]c2c1 | 168.55 |

The molecules below were run against T2, Mushroom tyrosinase (Agaricus bisporus) (UniProt O42713+Q00024+C7FF04+C7FF05) (assay: Potency index, ratio of 3-(4-benzylpiperidin-1-yl)-1-(1H-indol-3-yl)propan-1-one IC50 to compound IC50 for mushroom tyrosinase monophenolase activity).

| Compound | Ratio IC50 |
| --- | --- |
| COc1ccc2[nH]cc(C(=O)CCN3CCC(Cc4ccccc4)CC3)c2c1 | 7 |

The molecules below were run against T2, Mushroom tyrosinase (Agaricus bisporus) (assay: Potency index, ratio of 3-(4-benzylpiperidin-1-yl)-1-(1H-indol-3-yl)propan-1-one IC50 to compound IC50 for mushroom tyrosinase diphenolase activity).

| Compound | Ratio IC50 |
| --- | --- |
| COc1cc2[nH]cc(C(=O)CCN3CCC(Cc4ccc(F)cc4)CC3)c2cc1OC | < 35 |
| O=C(CCN1CCC(Cc2ccc(F)cc2)CC1)c1c[nH]c2ccccc12 | < 35 |
| COc1ccc2c(C(=O)CCN3CCC(Cc4ccc(F)cc4)CC3)c[nH]c2c1 | < 35 |
| COc1ccc2[nH]cc(C(=O)CCN3CCC(Cc4ccc(F)cc4)CC3)c2c1 | < 35 |

These molecules were tested against T2, Mushroom tyrosinase (Agaricus bisporus) (assay: Non-competitive inhibition of mushroom tyrosinase diphenolase activity at 4 to 16 uM using varying levels of L-DOPA as substrate by Lineweaver-Burk plot analysis).

| Compound | inhibition |
| --- | --- |
| O=C(CCN1CCC(Cc2ccc(F)cc2)CC1)c1c[nH]c2ccccc12 | Active |
| COc1ccc2c(C(=O)CCN3CCC(Cc4ccc(F)cc4)CC3)c[nH]c2c1 | Active |
| COc1ccc2[nH]cc(C(=O)CCN3CCC(Cc4ccc(F)cc4)CC3)c2c1 | Active |

These molecules were tested against T2, Mushroom tyrosinase (Agaricus bisporus) (assay: Mixed-type inhibition of mushroom tyrosinase diphenolase activity at 4 to 16 uM using varying levels of L-DOPA as substrate by Lineweaver-Burk plot analysis).

| Compound | inhibition |
| --- | --- |
| COc1cc2[nH]cc(C(=O)CCN3CCC(Cc4ccc(F)cc4)CC3)c2cc1OC | Active |

These molecules were tested against T2, Mushroom tyrosinase (Agaricus bisporus) (assay: Non-competitive inhibition of mushroom tyrosinase diphenolase activity at 25 to 100 uM using varying levels of L-DOPA as substrate by Lineweaver-Burk plot analysis).

| Compound | inhibition |
| --- | --- |
| O=C(CCN1CCC(Cc2ccc(F)cc2)CC1)Nc1ccccc1 | Active |
